Laboratory results from patent publication US20220281970A1, “Pharmaceutical Combinations” (Novartis AG, priority 2018, published 2022).
Converted amounts (≈) assume the structure as drawn.

Key:
[1] = Population PK model parameter estimates (NLME, Monolix) from CHDM201X2101 dataset; format: in vivo, human; details: population estimate
Text: (§1) For model building the PK/PD dataset of CHDM201X2101 were used and an NLME estimation (Monolix 4.3.2) performed. The model structure and the parameter estimates are provided below. This provided inputs for R/shiny. The mlxR package were used for simulation of longitudinal data from the MLXTRAN model.
parameter={r, t1, t2, Tk0, ka, V, Cl, PLTz, MMTP, T12P, sPW, alp, lPW, kr1, kr1D, EC50, ke0, cfr, h, Sg, HGD, koutg, gdfZ, kinG}

platelet (PLT) = test: Population PK/PD platelet model parameter estimates (NLME, Monolix) from CHDM201X2101 dataset; format: in vivo, human; details: population estimate
Text: Based on the population PK/PD data of the clinical study CHDM201X2101, an AML patients platelet model was developed which recognizes that the disease influences the regulation of platelets production. The following graphic elucidates the model.
as §1
EP1=kr1*E^h/(E^h+EC50^h)+kr1D*Cc

Colon 26 cells = test: Colon 26 Colorectal Cancer (CRC) syngeneic mouse model; format: in vivo
Description: Balb/c mice were implanted with 2×10^5 Colon 26 cells subcutaneously. Mice were treated with HDM201 at 40 mg/kg×3 every 3 h po on Days 10, 17 and 24 post cell implant, and anti-Tim3 antibody (murine cross reactive clone 5D12) at 5 mg/kg ip on days 10, 13, 17, and 20. End-point was defined as tumor volume equal or greater than 1000 mm^3.
The anti-tumor effects of HDM201 as a monotherapy or in combination with an anti-TIM3 antibody were evaluated in the Colon 26 Colorectal Cancer (CRC) syngeneic mouse model.

hematological tumors = test: Clinical study CHDM201X2101, HDM201 single agent; format: in vivo, human
Description: With this regimen, the RD has been determined as 45 mg HDM201 in hematological tumors in the CHDM201X2101 study. […] Proceedings of the American Association for Cancer Research Annual Meeting 2017; 2017 Apr. 1-5; Washington, D.C. Philadelphia (Pa.): AACR; Cancer Res 2017; 77 (13 Suppl): Abstract nr CT154. doi:10.1158/1538-7445.AM2017-CT154).
The starting dose and regimen selection for HDM201 in dose escalation is based on the previous Phase I dose escalation and expansion study of HDM201 as a single-agent in subjects with AML/MDS (CHDM201X2101) in which a dose of 45 mg/day (day 1-7/28-day cycle) was determined to be the RD. In this study, a starting dose and regimen of 20 mg/day HDM201 (day 1-5/28-day cycle) for dose escalation has been selected. The selection of dose and regimen was supported by single agent translational preclinical modeling of tumor bearing rats and population PK/PD modeling of thrombocytopenia and bone marrow blast data from CHDM201X2101 study in AML/MDS subjects. The starting dose corresponds to ˜[…] below the cumulative dose of HDM201 single agent RD (as evaluated in CHDM201X2101 at 45 mg/day (day 1-7/28-day cycle), or 315 mg/cycle). At this dose level, ˜15% of subjects are predicted to achieve preclinical derived average target efficacious concentrations of HDM201 per cycle, with some anticipated clinical activity (bone marrow blast reduction) and limited target myelosuppression.

[2] = Clinical study CPDR001X2105, MBG453 in AML/MDS subjects; format: in vivo, human; details: 400 mg Q2W and 800 mg Q4W
Description: (§2) The MBG453 single agent RD has been determined as 800 mg Q4W in solid tumor subjects primarily based on PK and PKPD modeling of target (TIM-3) occupancy. MBG453 at the dose level of 800 mg Q4W was predicted to give sustained target occupancy of 90% in tumor in >90% of subjects. […] MBG453 single agent is also being evaluated in AML/MDS subjects in the CPDR001X2105 study with Q4W and Q2W regimens.
The RD in AML/MDS has not yet been determined, however it is not expected to be different from solid tumors, based on preliminary PK and safety data.

[3] = Clinical study CMBG453X2101, MBG453 single agent in solid tumor subjects; format: in vivo, human; details: Q4W, based on PK and PKPD modeling of TIM-3 occupancy
Description: as §2

[4] = Balb/c mice, Colon 26 sc, HDM201 40 mg/kg x3 every 3 h po days 10, 17, 24, anti-Tim3 antibody 5 mg/kg ip days 10, 13, 17, 20
[5] = learning from clinical study CHDM201X2101

In the case of COc1ncc(-c2nc3c(n2C(C)C)[C@H](c2ccc(Cl)cc2)N(c2cc(Cl)cn(C)c2=O)C3=O)c(OC)n1 [HDM201, (S)-5-(5-Chloro-1-methyl-2-oxo-1,2-dihydro-pyridin-3-yl)-6-(4-chloro-phenyl)-2-(2,4-dimethoxy-pyrimidin-5-yl)-1-isopropyl-5,6-dihydro-1H-pyrrolo[3,4-d]imidazol-4-one], the pop_Tk0 [1] is reported as 1.314, the pop_Cl ([1]; method=FIXED) is reported as 6.18 and the pop_V ([1]; method=FIXED) is reported as 119. The pop_ka ([1]; method=FIXED) was 0.489, the pop_t1 ([1]; method=FIXED, absorption lag (Tlag=t1)) was 0.69 and the pop_t2 ([1]; method=FIXED, absorption lag (Tlag=t2)) was 0.412. The pop_r ([1]; method=FIXED, fraction for zero-order absorption) was 0.617, the EC50 (platelet (PLT); Homo sapiens, drug effect EP1 on platelet production, read-out: pop_EC50) was 0.261 µg/mL (≈ 0.469 µM) and the pop_h (platelet (PLT); method=FIXED, exponent h in EP1) was 2. It also gave a pop_kr1D (platelet (PLT); concentration-proportional term of EP1) of 0.006491, a pop_ke0 (platelet (PLT); effect compartment) of 6.152e-05 and a pop_kr1 (platelet (PLT); maximal term of drug effect EP1) of 2.1374. For the same compound, the “anti-tumor effects (tumor growth)” value (Colon 26 cells; [4]) was “inhibited tumor growth”, the “complete tumor regressions (CR)” value (Colon 26 cells; [4]) was 1 CR and the “anti-tumor immune memory / resistance to re-challenge” value (Colon 26 cells; mice with CR or long-term survival, Colon 26 cells) was “develop antitumor immunity and are resistant to re-challenge with the same tumor cells”. The “RD (recommended dose)” value (hematological tumors; day 1-7/28-day cycle, single-agent, subjects with AML/MDS) was 45 mg/day, the “hematopoietic recovery on dosing in AML” value (hematological tumors; [5]) was “Delayed hematopoietic recovery” and the “platelet toxicity on dosing in AML” value (hematological tumors; [5]) was “Cumulative platelet toxicity”. The “RD (recommended dose)” value (hematological tumors; once daily day 1 to day 7 of a 28-day cycle, hematological tumors) was 45 mg.

With “MBG453: high-affinity, humanized anti-TIM-3 IgG4 monoclonal antibody which blocks the binding of TIM-3 to phosphatidylserin (PtdSer)” the “tolerability in AML/MDS” value [2] was “well tolerated” and the “single agent RD (recommended dose)” value [3] was 800 mg.
